Reference: the CombiSolv-Exp solvation set (Vermeire and Green 2021)
Blank lines part the entries; values can stand above or below the molecule they belong to.

Test: solvent given as SMILES

solvation free energy, 298 K (in O): -4.97 kcal/mol
SMILES: CCCCCCNCc1ccc(C)cc1

solvation free energy, 298 K (in O): -4.1 kcal/mol
SMILES: COC(=O)C1CC1

solvation free energy, 298 K (in O): -6 kcal/mol
SMILES: CCOC(=O)CC(=O)OCC

solvation free energy, 298 K (in O): -3.87 kcal/mol
SMILES: C=C(C)C1CC=C(C)C(OC(=O)CC)C1 (stereo unspecified)

solvation free energy, 298 K (in CCCCCCCC): -4.63 kcal/mol
solvation free energy, 298 K (in CCCCCCCCCC): -4.56 kcal/mol
SMILES: CC(C)CC(C)O (stereo unspecified)

solvation free energy, 298 K (in O): -5.73 kcal/mol
SMILES: CCCNCc1ccc(C)cc1

solvation free energy, 298 K (in CCCCCCC): -4.79 kcal/mol
solvation free energy, 298 K (in O): -4.13 kcal/mol
SMILES: CCCCCN

solvation free energy, 298 K (in CCCCCCC): -5.42 kcal/mol
solvation free energy, 298 K (in CCCCO): -5.8 kcal/mol
solvation free energy, 298 K (in CO): -5.85 kcal/mol
solvation free energy, 298 K (in O): -3.04 kcal/mol
SMILES: CCCCC(=O)CC

solvation free energy, 298 K (in O): -4.27 kcal/mol
SMILES: Cc1ccc(C=O)cc1

solvation free energy, 298 K (in O): -7.43 kcal/mol
SMILES: CN(C)CCC=C1c2ccccc2CCc2ccccc21

solvation free energy, 298 K (in C=CCCCCCCCCCCCCCC): -3.64 kcal/mol
solvation free energy, 298 K (in CN1CCCC1=O): -3.67 kcal/mol
solvation free energy, 298 K (in O): 0.75 kcal/mol
SMILES: C=CC=CCC

solvation free energy, 298 K (in O): -6.12 kcal/mol
SMILES: CCCCCCC(=O)O

Second part, the molecule before the results:

SMILES: c1cc[nH]c1
solvation free energy, 298 K (in O): -4.78 kcal/mol

SMILES: CCOC(=O)OCC
solvation free energy, 298 K (in COC(C)(C)C): -5.35 kcal/mol
solvation free energy, 298 K (in ClC(Cl)(Cl)Cl): -5.78 kcal/mol
solvation free energy, 298 K (in O): -3.28 kcal/mol

SMILES: ClC(Cl)(Cl)Br
solvation free energy, 298 K (in CS(C)=O): -4.78 kcal/mol

SMILES: Clc1cc(-c2cc(Cl)c(Cl)c(Cl)c2)cc(Cl)c1Cl
solvation free energy, 298 K (in O): -4.11 kcal/mol

SMILES: Clc1c(Cl)c(Cl)c(-c2c(Cl)c(Cl)c(Cl)c(Cl)c2Cl)c(Cl)c1Cl
solvation free energy, 298 K (in CCCCCCCCC=CCCCCCCCC(=O)OCC(COC(=O)CCCCCCCC=CCCCCCCCC)OC(=O)CCCCCCCC=CCCCCCCCC): -14.6 kcal/mol
solvation free energy, 298 K (in O): -3.05 kcal/mol

SMILES: CC1=CCC23C(C)CCC(C(C)C)C2C13 (stereo unspecified)
solvation free energy, 298 K (in O): 0.56 kcal/mol

SMILES: O=c1[nH]cc(F)c(=O)[nH]1
solvation free energy, 298 K (in O): -16.9 kcal/mol

SMILES: C1=CCCCCCC1
solvation free energy, 298 K (in CN1CCCC1=O): -4.91 kcal/mol
solvation free energy, 298 K (in CN(C)C=O): -4.77 kcal/mol

SMILES: C=CC(C)C
solvation free energy, 298 K (in CC(=O)N(C)C): -2.13 kcal/mol
solvation free energy, 298 K (in CC(C)CC(C)(C)C): -2.87 kcal/mol
solvation free energy, 298 K (in CCC(C)=O): -2.71 kcal/mol
solvation free energy, 298 K (in CCCCCCC): -2.96 kcal/mol
solvation free energy, 298 K (in CCCCCCCC): -2.92 kcal/mol
solvation free energy, 298 K (in CCCCO): -2.5 kcal/mol
solvation free energy, 298 K (in CCNC(C)=O): -2.26 kcal/mol
solvation free energy, 298 K (in CCOC(C)=O): -2.74 kcal/mol
solvation free energy, 298 K (in CN1CCCC1=O): -2.03 kcal/mol
solvation free energy, 298 K (in CN(C)C=O): -2.09 kcal/mol
solvation free energy, 298 K (in CNC(C)=O): -2.14 kcal/mol
solvation free energy, 298 K (in CNC=O): -1.75 kcal/mol
solvation free energy, 298 K (in Cc1ccc(C)cc1): -3.31 kcal/mol
solvation free energy, 298 K (in ClCCCl): -2.71 kcal/mol
solvation free energy, 298 K (in O): 1.84 kcal/mol
solvation free energy, 298 K (in O=C1CCCCC1): -2.61 kcal/mol

SMILES: O=Cc1ccccc1
solvation free energy, 298 K (in CCCCCC): -5.53 kcal/mol
solvation free energy, 298 K (in CCCCCCC): -5.5 kcal/mol
solvation free energy, 298 K (in CCCCCCCCCCCCCCCC): -5.37 kcal/mol
solvation free energy, 298 K (in O): -4.02 kcal/mol

SMILES: O=C(Oc1ccccc1)c1ccccc1C(=O)Oc1ccccc1
solvation free energy, 298 K (in O): -11.6 kcal/mol

SMILES: ClCCCCl
solvation free energy, 298 K (in CC(C)=O): -5.63 kcal/mol
solvation free energy, 298 K (in CCCCCC): -4.43 kcal/mol
solvation free energy, 298 K (in ClC(Cl)(Cl)Cl): -5.2 kcal/mol
solvation free energy, 298 K (in O): -1.89 kcal/mol

SMILES: CCCCN(C)N=O
solvation free energy, 298 K (in CC(C)CC(C)(C)C): -5.73 kcal/mol
solvation free energy, 298 K (in O): -5.37 kcal/mol

SMILES: Cc1ccc(C)c2ccccc12
solvation free energy, 298 K (in O): -2.82 kcal/mol

SMILES: C1=CCC=C1
solvation free energy, 298 K (in Brc1cccc2ccccc12): -2.84 kcal/mol
solvation free energy, 298 K (in CC(=O)OCc1ccccc1): -2.92 kcal/mol
solvation free energy, 298 K (in CN1CCCC1=O): -3.33 kcal/mol
solvation free energy, 298 K (in CN(C)C=O): -3.41 kcal/mol
solvation free energy, 298 K (in O): -0.22 kcal/mol
solvation free energy, 298 K (in c1ccc2ncccc2c1): -2.88 kcal/mol

SMILES: Cc1ccc(O)cc1C
solvation free energy, 298 K (in CCCCCC): -6.89 kcal/mol
solvation free energy, 298 K (in CCCCCCC): -6.89 kcal/mol
solvation free energy, 298 K (in CCCCCCCC): -6.85 kcal/mol
solvation free energy, 298 K (in O): -6.51 kcal/mol

SMILES: CC(=O)CC(C)C
solvation free energy, 298 K (in C1COCCO1): -5.32 kcal/mol
solvation free energy, 298 K (in CC(=O)N(C)C): -5.24 kcal/mol
solvation free energy, 298 K (in CCCCCCCC): -4.34 kcal/mol
solvation free energy, 298 K (in CCCCN(C=O)CCCC): -5.03 kcal/mol
solvation free energy, 298 K (in CCOP(=O)(OCC)OCC): -4.94 kcal/mol
solvation free energy, 298 K (in CN1CCCC1=O): -5.14 kcal/mol
solvation free energy, 298 K (in CN1CCCCC1=O): -5.12 kcal/mol
solvation free energy, 298 K (in CN1CCN(C)C1=O): -4.91 kcal/mol
solvation free energy, 298 K (in CNC(C)=O): -4.82 kcal/mol
solvation free energy, 298 K (in NC=O): -4.19 kcal/mol
solvation free energy, 298 K (in O): -3.06 kcal/mol
solvation free energy, 298 K (in O=CN1CCOCC1): -4.62 kcal/mol
solvation free energy, 298 K (in OCCOCCO): -4.21 kcal/mol

SMILES: CC(=O)C(C)(C)C
solvation free energy, 298 K (in CCCCCC): -4.34 kcal/mol
solvation free energy, 298 K (in CCCCCCC): -4.3 kcal/mol
solvation free energy, 298 K (in CCCCCCCC): -4.21 kcal/mol
solvation free energy, 298 K (in CCCCCCCCCC): -4.15 kcal/mol
solvation free energy, 298 K (in O): -3.11 kcal/mol

SMILES: O=C(CCCN1CCC(O)(c2ccc(Cl)cc2)CC1)c1ccc(F)cc1
solvation free energy, 298 K (in CCCCOC(C)=O): -19.5 kcal/mol
solvation free energy, 298 K (in O): -15.4 kcal/mol

SMILES: CCCCSP(=O)(O)SCCCC
solvation free energy, 298 K (in O): -8.03 kcal/mol

SMILES: CC1=CC(=O)C(C(C)C)CC1 (stereo unspecified)
solvation free energy, 298 K (in O): -4.51 kcal/mol

SMILES: CNc1ccccc1
solvation free energy, 298 K (in CCCCCCCCCCCCCCCC): -6.06 kcal/mol
solvation free energy, 298 K (in O): -4.69 kcal/mol

SMILES: CCCCCCCCCCCCCCCCCCC
solvation free energy, 298 K (in CC(=O)N(C)C): -12.9 kcal/mol
solvation free energy, 298 K (in CCCCOC(C)=O): -12.7 kcal/mol
solvation free energy, 298 K (in CCO): -10.8 kcal/mol
solvation free energy, 298 K (in O): 4.38 kcal/mol

SMILES: CC(C)C(C)C
solvation free energy, 298 K (in C=CCCCCCCCCCCCCCC): -3.31 kcal/mol
solvation free energy, 298 K (in CC#N): -2.4 kcal/mol
solvation free energy, 298 K (in CCCCCCCCCCCCCCCC): -3.41 kcal/mol
solvation free energy, 298 K (in CCCCCCCCCCCCO): -3.07 kcal/mol
solvation free energy, 298 K (in CCCCCO): -3.15 kcal/mol
solvation free energy, 298 K (in CCCCO): -3.07 kcal/mol
solvation free energy, 298 K (in O): 2.36 kcal/mol

SMILES: COc1cccc(O)c1
solvation free energy, 298 K (in O): -7.67 kcal/mol

SMILES: CC(=O)c1ccc(C)cc1
solvation free energy, 298 K (in O): -4.7 kcal/mol
